Patent US11534457B2, “Use of dextran sulfate” (priority 2017, dated 2022)

Tested on: severe traumatic brain injury (sTBI)
Experiment: sTBI in rats, brain gene expression arrays and pathway analysis (Example 9)
Type: in vivo, Male Wistar rats
Description: The experimental protocol used in this study was approved by the Ethical Committee of the Catholic University of Rome, according to international standards and guidelines for animal care. Male Wistar rats of 300-350 g body weight were fed with standard laboratory diet and water ad libitum in a controlled environment. As the anesthetic mixture, the animals received 35 mg/kg b.w. ketamine and 0.25 mg/kg body weight midazolam by i.p. injection. Severe traumatic brain injury (sTBI) was induced by dropping a 450 g weight from 2 m height on to the rat head that had been protected by a metal disk previously fixed on the skull, according to the “weight drop” impact acceleration model (Marmarou et al., A new model of diffuse brain injury in rats. Part I: Pathophysiology and biomechanics. J Neurosurg. 1994; 80: 291-300). […] At the end of each period of treatment, rats were anesthetized again and then immediately sacrificed.
LMW-DS (Tikomed AB) was provided at a stock concentration of 20 mg/ml and was kept in a temperature-monitored refrigerator at 4° C. LMW-DS aliquots were diluted to the appropriate dosing concentration in sterile saline prior to delivery of a single subcutaneous injection.
Three doses of LMW-DS were administered subcutaneously 30 minutes post-TBI. The animals were sacrificed at 2 days post-TBI. The animals were divided into the following subgroups:
Three doses of LMW-DS were administered subcutaneously 30 minutes post-TBI. The animals were sacrificed at 7 days post-TBI. The animals were divided into the following subgroups:
An in vivo craniectomy was performed on all animals during anesthesia. After carefully removing the rat's skull, the brain was exposed and removed with a surgical spatula and quickly dropped in RNALater and preserved at 4° C. for further processing.
RNA extraction and array processing was carried out by SourceBioscience. The arrays used were the Agilent Rat expression arrays.
Statistical analysis was carried out using the Metaboanalyst software package. Gene expression changes of 10% with a p<0.05 were regarded as significant.
Pathway analysis of the differentially regulated genes was carried out using the Ingenuity pathway analysis package. The analysis was performed with special reference to pathways and molecular processes and diseases associated with neurodegenerative disease, including dementia, Alzheimer's disease, ALS, TBI and stroke, and with scarring and fibrosis, including glaucoma and normal pressure hydrocephalus (NPH) after subarachnoid haemorrhage.

[1] = TBI + 1 mg/kg LMW-DS, 2 days after TBI
[2] = TBI + 1 mg/kg LMW-DS, 7 days after TBI
[3] = TBI + 1 mg/kg LMW-DS, 7 days after TBI, relative to control
[4] = TBI + 1 mg/kg LMW-DS, after 7 days, TBI: Activated
[5] = TBI + 1 mg/kg LMW-DS, after 7 days, TBI: Inhibited
[6] = TBI + 5 mg/kg LMW-DS, 2 days after TBI

low molecular weight dextran sulfate [LMW-DS]
Diseases or functions annotation: Migration of cells [1]: Activated
Diseases or functions annotation: Necrosis [1]: Inhibited
Diseases or functions annotation: Non-hematologic malignant neoplasm [1]: Inhibited
Diseases or functions annotation: Pelvic tumor [1]: Inhibited
Diseases or functions annotation: Proliferation of blood cells [1]: Inhibited
Diseases or functions annotation: Proliferation of lymphatic system cells [1]: Inhibited
Diseases or functions annotation: Proliferation of lymphocytes [1]: Inhibited
Diseases or functions annotation: Quantity of blood cells [1]: Inhibited
Diseases or functions annotation: Quantity of bone [1]: Inhibited
Diseases or functions annotation: Quantity of cells [1]: Inhibited
Diseases or functions annotation: Quantity of connective tissue cells [1]: Activated
Diseases or functions annotation: Quantity of leukocytes [1]: Inhibited
Diseases or functions annotation: Quantity of lymphatic system cells [1]: Inhibited
Diseases or functions annotation: Quantity of phagocytes [1]: Inhibited
Diseases or functions annotation: Rheumatic Disease [1]: Inhibited
Diseases or functions annotation: Solid tumor [1]: Inhibited
Diseases or functions annotation: Survival of organism [1]: Inhibited
Diseases or functions annotation: Synthesis of hormone [1]: Activated
Diseases or functions annotation: Thrombus [1]: Activated
Diseases or functions annotation: Transport of molecule [1]: Activated
Ingenuity canonical pathway: Adrenomedullin signaling pathway [2]: Inhibited
Ingenuity canonical pathway: ERK5 Signaling [2]: Inhibited
Ingenuity canonical pathway: Endothelin-1 Signaling [2]: Activated
Ingenuity canonical pathway: G Beta Gamma Signaling [2]: Activated
Ingenuity canonical pathway: NF-κB Signaling [2]: Inhibited
Ingenuity canonical pathway: Opioid Signaling Pathway [2]: Inhibited
Ingenuity canonical pathway: Role of NFAT in Regulation of the Immune Response [2]: Activated
Ingenuity canonical pathway: Synaptic Long Term Depression [2]: Activated
z score: Abdominal cancer [2]: −2.426
z score: Abdominal carcinoma [2]: −1.987
z score: Cell movement [2]: −1.01
z score: Cell viability [2]: −1.584
z score: Concentration of hormone [2]: −0.32
z score: Development of connective tissue cells [2]: −0.005
z score: Development of malignant tumor [2]: −1.326
z score: Developmental process of synapse [2]: −0.152
z score: Differentiation of bone cells [2]: −1.799
z score: Differentiation of connective tissue cells [2]: −0.349
z score: Digestive organ tumor [2]: −1.396
z score: Digestive system cancer [2]: −1.96
z score: Epithelial neoplasm [2]: −1.313
z score: Formation of plasma membrane [2]: −0.152
z score: Frequency of tumor [2]: −2.128
z score: Gastrointestinal tumor [2]: −1.029
z score: Hematologic cancer [2]: −1.067
z score: Hematopoietic neoplasm [2]: −0.686
z score: Incidence of tumor [2]: −1.614
z score: Large intestine neoplasm [2]: −1.192
z score: Liver tumor [2]: −1.91
z score: Malignant genitourinary solid tumor [2]: −0.537
z score: Metabolism of hormone [2]: −1.066
z score: Pelvic tumor [2]: −1.214
z score: Quantity of Ca^2+ [2]: −0.11
z score: Quantity of carbohydrate [2]: 0.49
z score: Quantity of metal [2]: 0.415
z score: Synthesis of lipid [2]: 0.033
z score: Tumorigenesis of epithelial neoplasm [2]: −1.981
z score: Tumorigenesis of tissue [2]: −0.998
z score: Vaso-occlusion [2]: 1.264
z score: Weight gain [2]: 0.625
Ingenuity canonical pathway Adrenomedullin signaling pathway, z score [3]: −1
Ingenuity canonical pathway ERK5 Signaling, z score [3]: −2
Ingenuity canonical pathway Endothelin-1 Signaling, z score [3]: 1.342
Ingenuity canonical pathway G Beta Gamma Signaling, z score [3]: 1
Ingenuity canonical pathway NF-κB Signaling, z score [3]: −0.447
Ingenuity canonical pathway Opioid Signaling Pathway, z score [3]: −0.447
Ingenuity canonical pathway Role of NFAT in Regulation of the Immune Response, z score [3]: 0.816
Ingenuity canonical pathway Synaptic Long Term Depression, z score [3]: 1.342
Ingenuity canonical pathway mTOR Signaling, z score [3]: 1
Diseases or functions annotation: Development of malignant tumor [4]: Inhibited
Diseases or functions annotation: Digestive organ tumor [4]: Inhibited
Diseases or functions annotation: Frequency of tumor [4]: Inhibited
Diseases or functions annotation: Gastrointestinal tumor [4]: Inhibited
Diseases or functions annotation: Hematologic cancer [4]: Inhibited
Diseases or functions annotation: Hematopoietic neoplasm [4]: Inhibited
Diseases or functions annotation: Incidence of tumor [4]: Inhibited
Diseases or functions annotation: Large intestine neoplasm [4]: Inhibited
Diseases or functions annotation: Vaso-occlusion [4]: Activated
Diseases or functions annotation: Abdominal cancer [5]: Inhibited
Diseases or functions annotation: Abdominal carcinoma [5]: Inhibited
Diseases or functions annotation: Cell movement [5]: Inhibited
Diseases or functions annotation: Cell viability [5]: Inhibited
Diseases or functions annotation: Concentration of hormone [5]: Inhibited
Diseases or functions annotation: Development of connective tissue cells [5]: Inhibited
Diseases or functions annotation: Developmental process of synapse [5]: Inhibited
Diseases or functions annotation: Differentiation of bone cells [5]: Inhibited
Diseases or functions annotation: Differentiation of connective tissue cells [5]: Inhibited
Diseases or functions annotation: Digestive system cancer [5]: Inhibited
Diseases or functions annotation: Epithelial neoplasm [5]: Inhibited
Diseases or functions annotation: Formation of plasma membrane [5]: Inhibited
Diseases or functions annotation: Liver tumor [5]: Inhibited
Diseases or functions annotation: Malignant genitourinary solid tumor [5]: Inhibited
Diseases or functions annotation: Metabolism of hormone [5]: Inhibited
Diseases or functions annotation: Pelvic tumor [5]: Inhibited
Diseases or functions annotation: Quantity of Ca^2+ [5]: Inhibited
Diseases or functions annotation: Quantity of carbohydrate [5]: Activated
Diseases or functions annotation: Quantity of metal [5]: Activated
Diseases or functions annotation: Synthesis of lipid [5]: Activated
Diseases or functions annotation: Tumorigenesis of epithelial neoplasm [5]: Inhibited
Diseases or functions annotation: Tumorigenesis of tissue [5]: Inhibited
Diseases or functions annotation: Weight gain [5]: Activated
Diseases or functions annotation: Abdominal cancer [6]: Inhibited
Diseases or functions annotation: Abdominal carcinoma [6]: Inhibited
Diseases or functions annotation: Abdominal neoplasm [6]: Inhibited
